In paper PMC10180488, “Novel Derivatives of Eugenol as a New Class of PPARγ Agonists in Treating Inflammation: Design, Synthesis, SAR Analysis and In Vitro Anti-Inflammatory Activity” (Molecules, 2023):
Values joined by “and” are separate entries in the source; they are usually repeats but may differ in a detail not shown here. Equal entries are not always repeated.

What was measured:
human PPARγ- LBD = target: T1, human PPARγ- LBD (Homo sapiens, UniProt P37231); assay: Lanthascreen TR-FRET PPARγ competitive binding assay; details: for IC50: Lanthascreen TR-FRET competitive binding; for Raw Data / Raw Data - Background: TR-FRET
T1 construct: a mixture of a human PPARγ- LBD labelled with glutathione S-transferase (GST)
T1 sequence (P37231 238-503 limits assumed): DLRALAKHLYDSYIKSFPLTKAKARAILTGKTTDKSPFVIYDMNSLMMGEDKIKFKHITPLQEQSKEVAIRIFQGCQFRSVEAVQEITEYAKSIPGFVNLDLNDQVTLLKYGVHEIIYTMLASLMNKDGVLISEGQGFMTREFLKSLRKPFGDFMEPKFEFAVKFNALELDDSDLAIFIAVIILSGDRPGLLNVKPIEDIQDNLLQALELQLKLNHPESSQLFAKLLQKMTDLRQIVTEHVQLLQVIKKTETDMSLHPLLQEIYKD
Protocol: Using the Lanthasreen TR-FRET assay, the synthesized compounds were first preliminary tested for the PPARγ binding affinity. […] A chemical under test displaces the tracer from PPAR-LBD, which lowers the TR-FRET ratio and decreases the FRET signal Figure 8 [33].
A multimode low-volume proxy plate reader was used to read the plates after one hour of incubation. Then, a mixture of a human PPARγ- LBD labelled with glutathione S-transferase (GST), a fluorescent small pan-PPAR ligand (FluormoneTM Pan-PPAR Green), and terbium-labeled anti-GST antibody was added.

egg albumin = egg albumin (Gallus gallus, UniProt P01012); assay: Albumin denaturation assay; type: biochemical, hen; details: mean ± SD (n = 3), read-out: Percentage inhibition of denaturation of albumin
Protocol: Inflammation is accompanied by protein denaturation. Tissue protein denaturation is a well-established cause of Inflammatory illnesses. Inflammatory disorders including rheumatoid arthritis, diabetes, and cancer have been linked to the denaturation of proteins. The ability of a substance to stop proteins from becoming denaturized has a role in the prevention of inflammatory disorders. […] Denaturation of proteins is accomplished by keeping the reaction mixture in a water bath at 70 °C for […].
Minor modifications were made to Mizushima and Kobayashi’s and Sakat et al. methodologies. The reaction mixture containing 0.2 mL of egg albumin (from a fresh hen’s egg) is mixed with 2.8 mL of phosphate-buffered saline (PBS, pH 6.4) and 2 mL of synthesized compounds in varying concentrations. The mixture was then heated at 70 °C for 5 min after being incubated at 37 °C for approximately 15–20 min. After cooling, their absorbance was measured at 660 nm spectrometrically. Three duplicates of the experiment were carried out. […] Percentage inhibition = (OD control − OD sample/OD control) × 100

[1] = system: human red blood cells (HRBC); assay: HRBC membrane stabilization method; details: for HRBC membrane stabilization (percentage protection against HRBC lysis): mean ± SD (n = 3); for IC50: Homo sapiens, Erythrocyte, read-out: IC50 Values, HRBC membrane stabilization method
Protocol: The principle of this procedure is to stabilize the membrane of human red blood cells by hypotonic membrane lysis. […] Lysosomal enzyme levels typically decrease as the HRBC membrane is stabilized.
The packed cells in this blood solution were separated after centrifugation at 3000 rpm [41]. The packed cells were cleaned using an isosaline solution, and then, isosaline was used to prepare a 10% v/v suspension. This HRBC suspension was employed to estimate its anti-inflammatory properties. Different concentrations of the synthesized compounds and the reference standard were each combined with 1 mL of phosphate buffer (pH 7.4), 2 mL of hyposaline, and 0.5 mL of HRBC solution. A total of 2.0 mL of distilled water was utilized as the control. The assay mixtures were all centrifuged at 3000 rpm after 30 min of incubation at 37°C. The following formula was used to determine the percentage of stabilized HRBC membranes. Percentage protection= 100 − (OD sample/OD control) × 100

egg albumin, sequence (P01012 2-386): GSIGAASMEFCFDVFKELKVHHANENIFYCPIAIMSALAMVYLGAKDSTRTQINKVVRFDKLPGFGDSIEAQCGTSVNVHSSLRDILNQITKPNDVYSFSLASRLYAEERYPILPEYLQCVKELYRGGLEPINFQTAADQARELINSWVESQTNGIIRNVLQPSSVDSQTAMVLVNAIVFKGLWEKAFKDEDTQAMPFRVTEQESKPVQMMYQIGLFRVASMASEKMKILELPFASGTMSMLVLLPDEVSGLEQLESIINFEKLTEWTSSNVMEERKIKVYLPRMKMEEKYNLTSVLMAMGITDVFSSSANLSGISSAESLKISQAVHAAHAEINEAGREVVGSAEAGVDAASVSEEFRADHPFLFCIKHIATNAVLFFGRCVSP

SMILES	IC50 (human PPARγ- LBD)	Raw Data (human PPARγ- LBD; 0.0000512 µM)	Raw Data - Background (human PPARγ- LBD; 0.0000512 µM)	Raw Data (human PPARγ- LBD; 0.000256 µM)	Raw Data - Background (human PPARγ- LBD; 0.000256 µM)	inhibition at 6.25 µM (egg albumin)	inhibition at 12.5 µM (egg albumin)	inhibition at 25 µM (egg albumin)	inhibition at 50 µM (egg albumin)	inhibition at 100 µM (egg albumin)	inhibition at 200 µM (egg albumin)	inhibition at 400 µM (egg albumin)	HRBC membrane stabilization (percentage protection against HRBC lysis) ([1]; 6.25 µM)	HRBC membrane stabilization (percentage protection against HRBC lysis) ([1]; 12.5 µM)	HRBC membrane stabilization (percentage protection against HRBC lysis) ([1]; 25 µM)	HRBC membrane stabilization (percentage protection against HRBC lysis) ([1]; 50 µM)	HRBC membrane stabilization (percentage protection against HRBC lysis) ([1]; 100 µM)	HRBC membrane stabilization (percentage protection against HRBC lysis) ([1]; 200 µM)	HRBC membrane stabilization (percentage protection against HRBC lysis) ([1]; 400 µM)	IC50 [1]	other results
C=CCc1ccc(OCC(=O)Nc2ccccc2C)c(OC)c1 [Compound 1c, 2-(4-Allyl-2-methoxyphenoxy)-N-(o-tolyl)acetamide]	8.2 µM	1.881 RLU	1.647 RLU	1.88 RLU	1.646 RLU	1.77 ± 0.37%	5.32 ± 0.37%	8.42 ± 0.24%	13.8 ± 0.43%	19.2 ± 0.24%	27.26 ± 0.24%	34.03 ± 0.31%	6.21 ± 0.38%	14.26 ± 0.38%	24.78 ± 0.38%	29.08 ± 0.46%	40.65 ± 0.28%	50.92 ± 0.48%	62.54% and 62.54 ± 0.36%	79.7 µM	Raw Data (human PPARγ- LBD; 0.00128 µM): 1.88 RLU; Raw Data - Background (human PPARγ- LBD; 0.00128 µM): 1.637 RLU; Raw Data (human PPARγ- LBD; 0.0064 µM): 1.886 RLU; Raw Data - Background (human PPARγ- LBD; 0.0064 µM): 1.651 RLU; Raw Data (human PPARγ- LBD; 0.032 µM): 1.902 RLU; Raw Data - Background (human PPARγ- LBD; 0.032 µM): 1.657 RLU; Raw Data (human PPARγ- LBD; 0.16 µM): 1.994 RLU; Raw Data - Background (human PPARγ- LBD; 0.16 µM): 1.76 RLU; Raw Data (human PPARγ- LBD; 0.8 µM): 1.991 RLU; Raw Data - Background (human PPARγ- LBD; 0.8 µM): 1.756 RLU; Raw Data (human PPARγ- LBD; 4 µM): 1.33 RLU; Raw Data - Background (human PPARγ- LBD; 4 µM): 1.096 RLU; Raw Data (human PPARγ- LBD; 20 µM): 0.1617 RLU; Raw Data - Background (human PPARγ- LBD; 20 µM): 0.02704 RLU; Raw Data (human PPARγ- LBD; 100 µM): 0.06866 RLU; Raw Data - Background (human PPARγ- LBD; 100 µM): -0.146 RLU
C=CCc1ccc(OCC(=O)Nc2cccc(C(F)(F)F)c2)c(OC)c1 [Compound 1d, 2-(4-Allyl-2-methoxyphenoxy)-N-[(3-trifluoromethyl)phenyl]acetamide]	6.47 µM	2.02 RLU	1.876 RLU	2.04 RLU	1.881 RLU	4.21 ± 0.37%	8.79 ± 0.32%	14 ± 0.31%	18.8 ± 0.39%	32.46 ± 0.32%	38.49 ± 0.37%	49.09 ± 0.18%	8.85 ± 0.36%	17.77 ± 0.46%	28.72 ± 0.46%	34.74 ± 0.56%	45.51 ± 0.28%	56.45 ± 0.31%	67.40 ± 0.28%	66.3 µM	Raw Data (human PPARγ- LBD; 0.00128 µM): 2 RLU; Raw Data - Background (human PPARγ- LBD; 0.00128 µM): 1.79 RLU; Raw Data (human PPARγ- LBD; 0.0064 µM): 2.061 RLU; Raw Data - Background (human PPARγ- LBD; 0.0064 µM): 1.836 RLU; Raw Data (human PPARγ- LBD; 0.032 µM): 1.99 RLU; Raw Data - Background (human PPARγ- LBD; 0.032 µM): 1.875 RLU; Raw Data (human PPARγ- LBD; 0.16 µM): 1.945 RLU; Raw Data - Background (human PPARγ- LBD; 0.16 µM): 1.78 RLU; Raw Data (human PPARγ- LBD; 0.8 µM): 2.018 RLU; Raw Data - Background (human PPARγ- LBD; 0.8 µM): 1.89 RLU; Raw Data (human PPARγ- LBD; 4 µM): 1.542 RLU; Raw Data - Background (human PPARγ- LBD; 4 µM): 1.307 RLU; Raw Data (human PPARγ- LBD; 20 µM): 0.593 RLU; Raw Data - Background (human PPARγ- LBD; 20 µM): 0.497 RLU; Raw Data (human PPARγ- LBD; 100 µM): 0.6527 RLU; Raw Data - Background (human PPARγ- LBD; 100 µM): 0.4876 RLU
O=C(O)Cc1ccccc1Nc1c(Cl)cccc1Cl [Standard Diclofenac, Diclofenac, reference compound]						10.2 ± 0.55%	15.3 ± 0.43%	28.2 ± 0.61%	38.93 ± 0.37%	49.5 ± 0.51%	60.29 ± 0.36%	68.54 ± 0.43%	15.99 ± 0.64%	26.93 ± 0.55%	43.54 ± 0.48%	52.58 ± 0.48%	62.30 ± 0.59%	76.87 ± 0.64%	90.77 ± 0.36%	48.1 µM	HRBC membrane stabilization (percentage protection against HRBC lysis) ([1]; 400 µM, listed as diclofenac sodium): 90.77% and 90%
